The text below walks through data of ChEMBL document CHEMBL5108024, “New C-6 functionalized quinoline NorA inhibitors strongly synergize with ciprofloxacin against planktonic and biofilm growing resistant Staphylococcus aureus strains” (Eur J Med Chem, 2022).

The test system of series [1] is Staphylococcus aureus. Kind of series: Inhibition of EtBr efflux in ciprofloxacin-resistant Staphylococcus aureus 1199B overexpressing norA and harboring A116E grlA mutant assessed as reduction in fluorescence intensity at 50 uM measured for 5 mins by microplate reader analysis relative to control. In kind it is functional.
Series [2] deals with Staphylococcus aureus. Briefly: Antibacterial activity against ciprofloxacin-resistant Staphylococcus aureus 1199B overexpressing norA and harboring A116E grlA mutant assessed as inhibition of bacterial growth by broth microdilution method. In kind it is functional.
For series [3], the system named is Staphylococcus aureus. Briefly: Inhibition of EtBr efflux in ciprofloxacin-resistant Staphylococcus aureus 1199B overexpressing norA and harboring A116E grlA mutant assessed as reduction in fluorescence intensity at 10 uM measured for 5 mins by microplate reader analysis relative to control. In kind it is functional.
Series [4] relates to Staphylococcus aureus. Briefly: Synergistic antibacterial activity against ciprofloxacin-resistant Staphylococcus aureus 1199B overexpressing norA and harboring A116E grlA mutant assessed as fold reduction in ciprofloxacin MIC at 6.25 uM by broth microdilution method. It is filed as functional.
The subject of series [5] is Staphylococcus aureus. Briefly: Synergistic antibacterial activity against Staphylococcus aureus 1199B overexpressing norA and harboring A116E grlA mutant assessed as eight fold minimum potentiating concentration incubated in presence of ciprofloxacin by checkerboard assay. In kind it is functional.
The subject of series [6] is Staphylococcus aureus. Briefly: Synergistic antibiofilm activity against wild type Staphylococcus aureus 1199 assessed as biofilm eradication by measuring fold reduction in ciprofloxacin MBEC at 3.13 ug/ml incubated for 24 hrs by Calgary biofilm device assay. It is filed as functional. The settings on record: dose 3.13 µg/ml.
The test system of series [7] is Staphylococcus aureus. Kind of series: Synergistic antibiofilm activity against Staphylococcus aureus 1199B overexpressing norA and harboring A116E grlA mutant assessed as biofilm eradication by measuring fold reduction in ciprofloxacin MBEC at 3.13 ug/ml incubated for 24 hrs by Calgary biofilm device assay. It is filed as functional. The settings on record: dose 3.13 µg/ml.

The subject of series [8] is Staphylococcus aureus. Briefly: Antibacterial activity against norA deleted Staphylococcus aureus K1902 assessed as inhibition of bacterial growth by broth microdilution method. In kind it is functional.
For series [9], the system named is Staphylococcus aureus. Kind of series: Antibacterial activity against ciprofloxacin-susceptible wild type Staphylococcus aureus 1199 assessed as inhibition of bacterial growth by broth microdilution method. In kind it is functional.
Series [10] has as its system Staphylococcus aureus. Briefly: Synergistic antibiofilm activity against Staphylococcus aureus 1199B overexpressing norA and harboring A116E grlA mutant assessed as biofilm eradication by measuring ciprofloxacin MBEC at 3.13 ug/ml incubated for 24 hrs by Calgary biofilm device assay. In kind it is functional. The settings on record: dose 3.13 µg/ml.
Series [11] can be described thus: Cytotoxicity against human THP-1 cells assessed as cell viability at 3.13 ug/ml incubated for 24 hrs by MTT assay relative to control. In kind it is toxicity, cell-based. To be noted: at 3.13 µg/mL, read-out: Activity.
Series [12] deals with Staphylococcus aureus. Kind of series: Synergistic antibiofilm activity against wild type Staphylococcus aureus 1199 assessed as biofilm eradication by measuring ciprofloxacin MBEC at 3.13 ug/ml incubated for 24 hrs by Calgary biofilm device assay. In kind it is functional. The settings on record: dose 3.13 µg/ml.
Series [13] has as its system Staphylococcus aureus. Kind of series: Antibacterial activity against Staphylococcus aureus K2378 harbouring norA promoting and coding region assessed as inhibition of bacterial growth by broth microdilution method. In kind it is functional.
Series [14] in a line: Cytotoxicity against human A549 cells assessed as cell viability at 12.5 ug/ml incubated for 24 hrs by MTT assay relative to control. It is filed as toxicity, cell-based. The settings on record: at 12.5 µg/mL, read-out: Activity.
The nature of series [15]: Cytotoxicity against human THP-1 cells assessed as cell viability incubated for 24 hrs by MTT assay. It is filed as toxicity, cell-based.
The nature of series [16]: Cytotoxicity against human A549 cells assessed as cell viability at 3.13 ug/ml incubated for 24 hrs by MTT assay relative to control. In kind it is toxicity, cell-based. The settings on record: at 3.13 µg/mL, read-out: Activity.
Series [17] has as its system Staphylococcus aureus. Briefly: Synergistic antibacterial activity against Staphylococcus aureus K2378 overexpressing norA assessed as fold reduction in ciprofloxacin MIC at 0.2 to 12.5 ug/ml by checkerboard assay. The settings on record: dose 0.2-12.5 µg/ml. In kind it is functional.
Series [18] can be described thus: Cytotoxicity against human THP-1 cells assessed as cell viability at 12.5 ug/ml incubated for 24 hrs by MTT assay relative to control. It is filed as toxicity, cell-based. The settings on record: at 12.5 µg/mL, read-out: Activity.

“And” between values parts separate entries of the source, which are not always exact repeats. Identical values can stand only once. Where only a bound is given, the exact number is not on record here.

Turning to `CCCOc1ccc(-c2cc(OCCN3CCCCCC3)c3cc(Oc4ccccc4)ccc3n2)cc1`, the inhibition came to 83% in the series with Staphylococcus aureus [1] and 66.8% in the series on Staphylococcus aureus [3]. In addition, the MIC in the series on Staphylococcus aureus [2] was greater than 503 µM.

As for `CCCOc1ccc(-c2cc(OCCN(CC)CC)c3cc(SC)ccc3n2)cc1`, the inhibition in the series with Staphylococcus aureus [1] was 53.3%.

In the case of `CCCOc1ccc(-c2cc(OCCN3CCCCCC3)c3cc(SC)ccc3n2)cc1`, the inhibition turned out to be 81.2% with Staphylococcus aureus [1] and 81.1% with Staphylococcus aureus [3]. Also, the “fold change (FC)” value is on record as 8 in the series with Staphylococcus aureus [4], 286 with Staphylococcus aureus [6], 512 with Staphylococcus aureus [7] and 4 in the series on Staphylococcus aureus [17]. The MPC in the series with Staphylococcus aureus [5] worked out at 1.56 µg/mL. The MIC in the series on Staphylococcus aureus [8] is greater than 50 µg/mL; in the series on Staphylococcus aureus [9], greater than 50 µg/mL; with Staphylococcus aureus [13], greater than 50 µg/mL; with Staphylococcus aureus [2] it was > 50 µg/mL and 69.5 µM. Moreover, the figures for the MBEC with Staphylococcus aureus [10] and in the series with Staphylococcus aureus [12] were 1.25 µg/mL and 0.07 µg/mL, respectively. The viability at 24 h, 3.13 ug/ml in [11] was determined as 68.8%; in series [16], 100%. Besides, the values for the viability at 24 h, 12.5 ug/ml in [14] and in [18] were 100% and 19.9%, respectively. For the same compound, the CC50 at 24 h in series [15] was greater than 3.13 µg/mL.

For `CCCOc1ccc(-c2cc(OCCN(CC)CC)c3cc(Br)ccc3n2)cc1`, in the series on Staphylococcus aureus [1], the inhibition was 63.4%.

With `CCCOc1ccc(-c2cc(OCCN3CCCCC3)c3cc(OCCC)ccc3n2)cc1`, in the series with Staphylococcus aureus [1], the inhibition was 73.9%.

On to `CCCOc1ccc(-c2cc(OCCN(CC)CC)c3cc(OCCC)ccc3n2)cc1`, for which the inhibition in the series with Staphylococcus aureus [1] turned out to be 67.1%.

As to `CCCOc1ccc(-c2cc(OCCN3CCCCC3)c3cc(OC(C)C)ccc3n2)cc1`, the inhibition with Staphylococcus aureus [1] came to 65.3%.

For the compound `CCCOc1ccc(-c2cc(OCCN3CCCCCC3)c3cc(C(F)(F)F)ccc3n2)cc1`, the inhibition with Staphylococcus aureus [1] came to 85.7%; with Staphylococcus aureus [3], 65.6%. The “fold change (FC)” value in the series on Staphylococcus aureus [4] is reported as “>=8”; in the series on Staphylococcus aureus [6] it was 286; in the series with Staphylococcus aureus [7] it was 512; in the series with Staphylococcus aureus [17], 4. In the series on Staphylococcus aureus [5], the MPC turned out to be 1.56 µg/mL. The MIC in the series with Staphylococcus aureus [8] was greater than 50 µg/mL; in the series on Staphylococcus aureus [9], greater than 50 µg/mL; with Staphylococcus aureus [13], greater than 50 µg/mL; with Staphylococcus aureus [2], > 50 µg/mL and > 529 µM. The figures for the MBEC in the series with Staphylococcus aureus [10] and with Staphylococcus aureus [12] were 0.63 µg/mL and 0.07 µg/mL, respectively. In addition, the viability at 24 h, 3.13 ug/ml in [11] was 65.4%; in [16], 100%. The viability at 24 h, 12.5 ug/ml in series [14] worked out at 77.1%; in series [18], 27%. In series [15], the CC50 at 24 h is greater than 3.13 µg/mL.

In the case of `CCCOc1ccc(-c2cc(OCCN3CCCCC3)c3cc(SC)ccc3n2)cc1`, the inhibition worked out at 79.9% in the series on Staphylococcus aureus [1] and 80.2% in the series with Staphylococcus aureus [3]. In addition, the “fold change (FC)” value with Staphylococcus aureus [4] is “>=8”. In addition, in the series with Staphylococcus aureus [5], the MPC was determined as 6.25 µg/mL. Moreover, the MIC with Staphylococcus aureus [9] is greater than 50 µg/mL; with Staphylococcus aureus [2], > 50 µg/mL and 71.7 µM.

As to `CCCOc1ccc(-c2cc(OCCN3CCCCC3)c3cc(OC(F)(F)F)ccc3n2)cc1`, the inhibition in the series with Staphylococcus aureus [1] was 81.2%; with Staphylococcus aureus [3] it was 86.9%. The MIC with Staphylococcus aureus [2] was greater than 529 µM.

As to `CCCOc1ccc(-c2cc(OCCN3CCCCCC3)c3cc(C#N)ccc3n2)cc1`, the inhibition in the series with Staphylococcus aureus [1] turned out to be 84.2%; with Staphylococcus aureus [3], 86.8%. For the same compound, the MIC in the series with Staphylococcus aureus [2] was greater than 582 µM.

As for `CCCOc1ccc(-c2cc(OCCN3CCCCC3)c3cc(Oc4ccccc4)ccc3n2)cc1`, the results for the inhibition with Staphylococcus aureus [1] and in the series on Staphylococcus aureus [3] were 84.1% and 65.6%, respectively. The “fold change (FC)” value stood at 8 in the series on Staphylococcus aureus [4], 286 with Staphylococcus aureus [6], 512 in the series on Staphylococcus aureus [7] and 4 in the series with Staphylococcus aureus [17]. The MPC in the series with Staphylococcus aureus [5] was 1.56 µg/mL. The MIC in the series on Staphylococcus aureus [8] is greater than 50 µg/mL; in the series on Staphylococcus aureus [9], greater than 50 µg/mL; in the series on Staphylococcus aureus [13] it was greater than 50 µg/mL; with Staphylococcus aureus [2], > 50 µg/mL and > 518 µM. The figures for the MBEC in the series on Staphylococcus aureus [10] and in the series with Staphylococcus aureus [12] were 1.25 µg/mL and 0.07 µg/mL, respectively. The viability at 24 h, 3.13 ug/ml came to 87.9% in series [11] and 100% in series [16]. Besides, the viability at 24 h, 12.5 ug/ml in [14] turned out to be 100%; in series [18], 21.8%. Besides, the cytotoxic concentration (CC50) at 24 h in series [15] is greater than 3.13 µg/mL.

Regarding `CCCOc1ccc(-c2cc(OCCN3CCCCCC3)c3cc(OC(F)(F)F)ccc3n2)cc1`, the inhibition came out at 84.9% in the series on Staphylococcus aureus [1] and 70.4% in the series with Staphylococcus aureus [3]. In the series on Staphylococcus aureus [2], the MIC was greater than 512 µM.

`CCCOc1ccc(-c2cc(OCCN3CCCCC3)c3cc(NCc4ccccc4)ccc3n2)cc1`: the inhibition in the series with Staphylococcus aureus [1] turned out to be 40.6%.

For the compound `CCCOc1ccc(-c2cc(OCCN3CCCCC3)c3cc(C#N)ccc3n2)cc1`, the inhibition in the series with Staphylococcus aureus [1] is 77.8%.

As to `CCCOc1ccc(-c2cc(OCCN(CC)CC)c3cc(C#N)ccc3n2)cc1`, in the series with Staphylococcus aureus [1], the inhibition was 77.8%.

As to `CCCOc1ccc(-c2cc(OCCN3CCCCC3)c3cc(-c4ccccc4)ccc3n2)cc1`, the inhibition in the series with Staphylococcus aureus [1] is 80.6%; with Staphylococcus aureus [3], 41.9%.

Regarding `CCCOc1ccc(-c2cc(OCCN(CC)CC)c3cc(OC(F)(F)F)ccc3n2)cc1`, the inhibition with Staphylococcus aureus [1] stood at 83%; in the series on Staphylococcus aureus [3], 69.2%. Further, the MIC in the series with Staphylococcus aureus [2] is greater than 541 µM.

`CCCOc1ccc(-c2cc(OCCN3CCCCC3)c3cc(C(F)(F)F)ccc3n2)cc1`: the inhibition in the series on Staphylococcus aureus [1] was found to be 87.4%; with Staphylococcus aureus [3], 70.1%. Moreover, in the series with Staphylococcus aureus [4], the “fold change (FC)” value is listed as 8. In addition, in the series with Staphylococcus aureus [5], the MPC amounted to 3.13 µg/mL. Also, the minimum inhibitory concentration (MIC) was greater than 50 µg/mL in the series with Staphylococcus aureus [9]; > 50 µg/mL and > 545 µM in the series on Staphylococcus aureus [2]. Besides, the MBEC in the series on Staphylococcus aureus [10] is greater than 50 µg/mL; in the series on Staphylococcus aureus [12], 0.07 µg/mL.

For the compound `CCCOc1ccc(-c2cc(OCCN3CCCCC3)c3cc(Br)ccc3n2)cc1`, in the series on Staphylococcus aureus [1], the inhibition was found to be 71.6%.

On to `CCCOc1ccc(-c2cc(OCCN(CC)CC)c3cc(OC(F)F)ccc3n2)cc1`, for which the inhibition in the series on Staphylococcus aureus [1] was determined as 71.9%.

As to `CCCOc1ccc(-c2cc(OCCN3CCCCCC3)c3cc(Br)ccc3n2)cc1`, the inhibition in the series on Staphylococcus aureus [1] came out at 76.4%.

In the case of `CCCOc1ccc(-c2cc(OCCN(CC)CC)c3cc(OC(C)C)ccc3n2)cc1`, the inhibition with Staphylococcus aureus [1] was 43.7%.

As to `CCCOc1ccc(-c2cc(OCCN(CC)CC)c3cc(C(F)(F)F)ccc3n2)cc1`, the inhibition in the series on Staphylococcus aureus [1] is 73.5%.

As for `CCCOc1ccc(-c2cc(OCCN3CCCCCC3)c3cc(OC(C)C)ccc3n2)cc1`, in the series on Staphylococcus aureus [1], the inhibition worked out at 75.3%.

`CCCOc1ccc(-c2cc(OCCN3CCCCCC3)c3cc(OC(F)F)ccc3n2)cc1`: in the series on Staphylococcus aureus [1], the inhibition amounted to 70.7%.
